Here are results for eight compounds from patent US20040191763A1, “HBV mutations associated with reduced susceptibility to adefovir” (priority 2002, published 2004).

The test system of one test is rtN236T mutant HBV. The test is described as follows: Whole HBV genome cell culture drug susceptibility assay, rtN236T patient-derived clones. Type of test: cell-based, hepatitis B virus. The conditions noted are these: for susceptibility of the rtN236T mutant (in words): in vitro; for IC50 Fold Change (Week96/Baseline): adefovir.
For test [1], the system named is wild-type HBV (baseline patient-derived clones). Description: Whole HBV genome cell culture drug susceptibility assay, baseline wild-type patient-derived clones. Type of test: cell-based, hepatitis B virus.
Test [2] has as its target recombinant HBV polymerase (Hepatitis B virus genotype D subtype ayw, UniProt P03156). The conditions noted are these: competitive with respect to dATP; read-out: inhibition constant (Ki); cited from earlier work.
The subject of another test is rtA181V mutant HBV. Description: Whole HBV genome cell culture drug susceptibility assay, rtA181V patient-derived clones. Type of test: cell-based, hepatitis B virus. Particulars: for IC50: Hepatitis B virus, HepG2, 168 h, HepG2, 7 days; for IC50 Fold Change (Week96/Baseline): adefovir. From the text:
. The rtA181V mutation appears to confer a low degree of reduced susceptibility to adefovir relative to the adefovir-resistant rtN236T mutation (7- to 14-fold resistance to adefovir in vitro). […] In contrast, serum HBV DNA in the other patient (0624-1517) remained suppressed below 1000 copies/mL after a period of treatment interruption during which this mutation was detected (FIG. 2). […] The clinical significance of the rtA181V mutation is unclear based on the in vitro drug susceptibility data and the disparate clinical profiles of the two patients, although as noted it would have diagnostic utility for HBV infection.

Test [3] relates to rtN236T+rtA181T double mutant HBV. Description: Adefovir susceptibility of rtN236T+rtA181T double mutant made by site-directed mutagenesis of patient-derived clone. Type of test: cell-based, hepatitis B virus. From the text: (§1) One patient (0454-2506) with the rtN236T mutation also developed a second conserved site mutation rtA181T at week 96. However, all week 96 isolates derived from the patient encoding both rtN236T and rtA181T were replication deficient in vitro; the reason for this is unclear. To assess the adefovir sensitivity of HBV containing both rtN236T and rtA181Tmutations, an artificial construct was obtained by modifying an existing patient-derived HBV clone. The rtA181T mutation was introduced by site-directed mutagenesis into replicating HBV clones from patient 0454-2506 that already encoded rtN236T. The resulting double mutants were replication competent and were used for adefovir susceptibility testing. […] The rtA181T mutation was also introduced into a standard HBV lab strain (genotyped, ayw) to assess the individual contribution of the rtA181T mutation.

Test [4] relates to rtA181T mutant lab HBV strain (ayw). The test is described as follows: Adefovir susceptibility of standard HBV lab strain carrying rtA181T. In kind it is cell-based, hepatitis B virus.
Text: as §1

In test [5] the test system is wild-type lab HBV strain (ayw). Description: Adefovir susceptibility of standard HBV lab strain, wild-type. In kind it is cell-based, hepatitis B virus.
Text: as §1

The subject of test [6] is rtK241E+rtK318Q mutant HBV. Description: Whole HBV genome cell culture drug susceptibility assay, rtK241E+rtK318Q patient-derived clones. The conditions noted are these: adefovir, patient 0370-3503, rtK241E + rtK318Q.
Protocol: Drug susceptibility of patient-derived clones was analyzed by transient transfection into HepG2 cells.
To investigate if these conserved site mutations conferred resistance to adefovir, adefovir susceptibility of HBV isolates derived from the above five patients was evaluated using a whole HBV genome cell culture assay as described above.
For test [7], the system named is serum HBV DNA. The test is described as follows: Phase 3 clinical study GS-98-438, HBeAg negative chronic hepatitis B patients. In kind it is in vivo, human. Here is the method:
The median serum HBV DNA levels declined by 3.5 and 3.9 log10 copies/mL from baseline to week 48 in the ADV 10 mg dose groups in HBeAg positive (Study GS-98-437) and in HBeAg negative (Study GS-98-438) chronic hepatitis B patients, respectively.
Adefovir resistance surveillance was performed in a blinded manner in HBeAg negative chronic hepatitis B patients treated for 96 weeks in a Phase 3 double-blind, randomized, placebo-controlled clinical study (GS-98-438) of adefovir dipivoxil 10 mg (ADV). The analysis included 79 patients who received ADV 10 mg daily for the first 48 weeks and were randomized to also receive ADV 10 mg during the second 48 weeks.
The reverse transcriptase (RT) domain of the HBV polymerase gene (rt1 to rt344) was sequenced for HBV DNA extracted from baseline and week 96 serum samples (or the last on-study sample) for the 79 patients treated continuously with ADV for 96 weeks if the samples had detectable serum HBV DNA (≧1000 copies/mL by Roche Amplicor™ PCR assay) at the time points tested.
Study GS-98-438 is a randomized, double-blind, placebo-controlled Phase 3 clinical study of the safety and efficacy of ADV for the treatment of patients with HBeAg negative/anti-HBe positive/HBV DNA positive chronic hepatitis B. A total of 184 patients received at least one dose of study medication during the first 48 weeks (n=61 and 123 for the placebo and ADV 10 mg groups, respectively). During the second 48 weeks, all placebo patients switched to ADV 10 mg daily while the ADV-treated patients were re-randomized to either continue ADV or receive placebo at a 2:1 ratio. Accordingly, all patients who received at least one dose of study drug during the second 48 weeks are classified into three groups: PLB-ADV (n=60), ADV-ADV (n=79), and ADV-PLB (n=40).
A virology substudy of Study GS-98-438 included all patients in the ADV 10 mg-ADV 10 mg group (n=79). The RT domain of the HBV polymerase gene from banked serum samples from these patients was genotypically analyzed at baseline, and either at week 96, or upon early termination during the second 48 weeks.
If the week 96 serum HBV DNA value was not available for a patient, the closest serum HBV DNA value prior to week 96 was used. All week 96 and the last on-drug samples are referred to as week 96 samples hereafter. Note that Roche Molecular Systems raised the lower limit of quantification of the HBV DNA PCR assay from 400 copies/mL to 1,000 copies/mL after Gilead completed the week 48 analyses for study 438.

In test [8] the test system is serum HBV DNA. The conditions noted are these: ADV 10 mg daily, HBeAg positive patients; cited from earlier work.
The test system of test [9] is serum HBV DNA. Particulars: ADV 10 mg daily, HBeAg negative patients; cited from earlier work.
Setting [10] is: Hepatitis B virus, read-out: IC50 rtN23T Mutant, patient-derived HBV strain carrying rtN236T (Table 7).
The mark [11] stands for this setting: patient-derived HBV strain carrying rtN236T (Table 7).
Setting [12] is: Hepatitis B virus, read-out: IC50 Wild-type, patient-derived HBV strain, wild-type (Table 7).
Where [13] appears, read: patient-derived HBV strain carrying rtN236T (Table 7), read-out: IC50 rtN23T Mutant.
[14] abbreviates: patient-derived HBV strain, wild-type (Table 7), read-out: IC50 Wild-type.

Like-named read-outs stand apart in the source and are kept apart here. A value given as a limit tells only on which side of the number the result lay.

Chain of recombinant HBV polymerase (P03156 whole entry): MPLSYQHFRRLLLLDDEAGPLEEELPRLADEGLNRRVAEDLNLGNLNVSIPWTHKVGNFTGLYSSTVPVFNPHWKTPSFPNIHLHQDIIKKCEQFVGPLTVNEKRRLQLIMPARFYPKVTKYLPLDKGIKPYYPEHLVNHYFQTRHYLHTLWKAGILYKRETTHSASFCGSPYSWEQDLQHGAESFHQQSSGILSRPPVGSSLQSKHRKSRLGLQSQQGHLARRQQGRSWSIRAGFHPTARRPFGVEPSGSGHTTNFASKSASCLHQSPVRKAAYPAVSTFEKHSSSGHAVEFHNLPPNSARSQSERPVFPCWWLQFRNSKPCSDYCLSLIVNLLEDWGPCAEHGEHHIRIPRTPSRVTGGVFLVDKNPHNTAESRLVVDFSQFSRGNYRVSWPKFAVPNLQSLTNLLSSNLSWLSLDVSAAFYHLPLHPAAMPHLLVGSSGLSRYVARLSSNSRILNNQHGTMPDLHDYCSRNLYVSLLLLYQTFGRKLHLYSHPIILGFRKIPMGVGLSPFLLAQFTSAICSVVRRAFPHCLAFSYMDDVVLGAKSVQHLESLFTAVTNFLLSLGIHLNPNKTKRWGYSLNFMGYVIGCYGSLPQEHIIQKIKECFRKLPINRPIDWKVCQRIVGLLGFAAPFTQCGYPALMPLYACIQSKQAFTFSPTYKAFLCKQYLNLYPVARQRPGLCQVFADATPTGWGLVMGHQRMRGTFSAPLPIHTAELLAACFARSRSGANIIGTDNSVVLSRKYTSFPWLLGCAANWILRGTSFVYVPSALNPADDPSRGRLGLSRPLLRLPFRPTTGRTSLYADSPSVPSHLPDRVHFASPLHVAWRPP

For `C=C1[C@H](CO)[C@@H](O)C[C@@H]1n1cnc2c(=O)[nH]c(N)nc21` [Entecavir, entecavir], the IC50 with rtN236T mutant HBV (setting [10]) stood at 0.26 nM; in test [1] (setting [12]) it was 0.39 nM. Moreover, the “susceptibility of the rtN236T mutant (in words)” value in the test with rtN236T mutant HBV is recorded as “remained susceptible”. The “IC50 Fold Change (rtN236T/Wild-type)” value with rtN236T mutant HBV (setting [11]) was 0.67 fold.
Consider `Nc1ccn([C@@H]2CS[C@H](CO)O2)c(=O)n1` [Lamivudine, lamivudine], for which the IC50 in the test on rtN236T mutant HBV (setting [10]) was determined as 70 nM; with rtN236T mutant HBV (Hepatitis B virus, read-out: Lamivudine IC50 Week 96, patient 0454-2506, week 96 clones with single rtN236T), 70 nM. The “lamivudine IC50 change” value in the test on rtN236T mutant HBV (rtN236T mutant in vitro) is recorded as at most 3.5 fold.
Take `Nc1ncnc2c1ncn2CCOCP(=O)(O)OP(=O)(O)OP(=O)(O)O` [adefovir diphosphate]: the Ki in [2] is 100 nM.
On to `Cc1cn([C@@H]2C[C@@H](O)[C@H](CO)O2)c(=O)[nH]c1=O` [L-dT], for which the “susceptibility of the rtN236T mutant (in words)” value in the test on rtN236T mutant HBV is “remained susceptible”. Besides, the “IC50 Fold Change (rtN236T/Wild-type)” value in the test with rtN236T mutant HBV (setting [11]) is on record as 2.4 fold. For the same compound, the IC50 in the test on rtN236T mutant HBV (setting [13]) was found to be 330 nM; in test [1] (setting [14]), 140 nM.
On to `Nc1ncnc2c1ncn2CCOCP(=O)(O)O` [Adefovir, adefovir], for which the IC50 with rtN236T mutant HBV (Hepatitis B virus, HepG2, 168 h, read-out: Adefovir IC50 Week 96, patient 0454-2506, week 96 clones with single rtN236T, HepG2, 7 days) stood at 1550 ± 910 nM; in the test with rtN236T mutant HBV (Hepatitis B virus, HepG2, 168 h, read-out: Adefovir IC50 Week 96, patient 0626-1537, week 96 rtN236T clones, HepG2, 7 days), 3640 ± 2780 nM; in the test with rtN236T mutant HBV (setting [10]), 1470 nM; in the test with rtA181V mutant HBV (read-out: Adefovir IC50 Week 96, patient 0624-1517, week 96 rtA181V clones) it was 520 ± 110 nM; with rtA181V mutant HBV (read-out: Adefovir IC50 Week 96, patient 0624-1564, week 96 rtA181V clones), 620 ± 290 nM; in test [1] (Hepatitis B virus, HepG2, 168 h, read-out: Adefovir IC50 Baseline, patient 0370-3503, baseline clones, HepG2, 7 days), 160 ± 10 nM. In addition, the IC50 in [1] (Hepatitis B virus, HepG2, 168 h, read-out: Adefovir IC50 Baseline, patient 0454-2506, baseline wild-type clones, HepG2, 7 days) turned out to be 210 ± 10 nM; in test [1] (Hepatitis B virus, HepG2, 168 h, read-out: Adefovir IC50 Baseline, patient 0624-1517, baseline clones, HepG2, 7 days), 210 ± 70 nM; in test [1] (Hepatitis B virus, HepG2, 168 h, read-out: Adefovir IC50 Baseline, patient 0624-1564, baseline clones, HepG2, 7 days), 210 ± 10 nM; in [1] (Hepatitis B virus, HepG2, 168 h, read-out: Adefovir IC50 Baseline, patient 0626-1537, baseline clones, HepG2 transient transfection, 7 days) it was 260 ± 170 nM; in test [1] (setting [12]), 150 nM; in test [3] (Hepatitis B virus, patient 0454-2506 derived clone, rtN236T + rtA181T (rtA181T introduced by site-directed mutagenesis)), 530 ± 260 nM. For the same compound, the IC50 stood at 240 ± 30 nM in [4] (Hepatitis B virus) and 190 ± 30 nM in [5] (Hepatitis B virus, lab HBV strain, wild-type). In addition, the “IC50 Fold Change (Week96/Baseline)” value with rtN236T mutant HBV (patient 0454-2506, single rtN236T) is given as 7.3 fold; in the test with rtN236T mutant HBV (patient 0626-1537, rtN236T), 13.8 fold; with rtA181V mutant HBV (patient 0624-1517, rtA181V) it was 2.5 fold; with rtA181V mutant HBV (patient 0624-1564, rtA181V), 3.0 fold; in test [6], 0.9 fold; in [6] (listed as adefovir) it was “less than 0.9 fold”. In the test with rtN236T mutant HBV (setting [11]), the “IC50 Fold Change (rtN236T/Wild-type)” value is 9.6 fold. The “IC50 Fold Change from Wild-Type” value in test [1] (adefovir, patient 0454-2506 wild-type (baseline), reference) was determined as 1 fold; in test [3] (adefovir, patient 0454-2506 derived, rtN236T + rtA181T), 2.5 fold; in [4] (adefovir), 1.3 fold; in test [5] (adefovir, lab HBV strain wild-type, reference), 1 fold.
For the compound `CC(C)(C)C(=O)OCOP(=O)(COCCn1cnc2c(N)ncnc21)OCOC(=O)C(C)(C)C` [ADV, adefovir dipivoxil], in the test on serum HBV DNA [7] (both patients who developed rtN236T (0626-1537, 0454-2506)), the “serum HBV reduction from baseline after initiation of therapy” value is given as “less than 2 log10 copies/mL”. In addition, the “patients with serum HBV DNA levels <1000 copies/mL at week 96 (or last on-study visit)” value with serum HBV DNA [7] (of 79 patients, ADV 10 mg daily for 96 weeks) amounted to 58 patients. Besides, the “reduction in serum HBV DNA” value in the test on serum HBV DNA [7] (patient 0370-3503 (rtK241E+rtK318Q), week 96) is above 5 log10. For the same compound, the “serum HBV DNA” value is on record as 3.1 log10 copies/mL with serum HBV DNA [7] (patient 0370-3503, week 96) and 3.6 log10 copies/mL in the test on serum HBV DNA [7] (patient 0370-3503, week 156). The “median serum HBV DNA decline from baseline to week 48” value is 3.5 log10 copies/mL in the test with serum HBV DNA [8] and 3.9 log10 copies/mL in the test on serum HBV DNA [9].
Take `C[C@H](Cn1cnc2c(N)ncnc21)OCP(=O)(O)O` [Tenofovir, tenofovir]: the “IC50 Fold Change (rtN236T/Wild-type)” value in the test on rtN236T mutant HBV (setting [11]) is reported as 4.2 fold. For the same compound, the IC50 in the test on rtN236T mutant HBV (setting [13]) turned out to be 550 nM; in test [1] (setting [14]) it was 130 nM.
As to `COc1ccc(Sc2nc(N)nc3c2ncn3CCOCP(=O)(OCC(F)(F)F)OCC(F)(F)F)cc1` [MCC-478], the IC50 came to 250 nM in the test with rtN236T mutant HBV (setting [10]) and 30 nM in [1] (setting [12]). In the test with rtN236T mutant HBV (setting [11]), the “IC50 Fold Change (rtN236T/Wild-type)” value came out at 8.6 fold.
